Data set [1] in a line: Determination of fade time T1/2 after isolation from the activating UV light. Type of data set: physicochemical. Further details: key: *: Fades too fast to obtain readings. As to conditions: chloroform, room temperature (72° F.). How it is done:
(§1) Each of the photochromic compounds (compound P) formed in step 2 of Examples 1-13 and Comparative Example 1 were independently dissolved in separate containers of chloroform. Additionally, a purchased sample of 3,3-diphenyl-naphtho-3H[2,1-b]pyran, identified as Comparative Example 2, was dissolved in a separate container of chloroform.
(§2) Each of the chloroform-dissolved photochromic compounds of Examples 1-13 and Comparative Examples 1-2 were then irradiated with ultraviolet light with a maximum wavelength of 350 nanometers and were measured for maximum absorption wavelength) λmax. The fade time, T1/2 was then determined for each of the irradiated compounds. The fade time for a particular chloroform dissolved photochromic compound is defined as the time interval, at room temperature (72° F.), for the absorbance of the activated form of the chloroform-dissolved photochromic compound to decrease to 1/2 of the maximum absorbance, after the photochromic compound is isolated from the activating source of ultraviolet light. The maximum absorption wavelength and fade time determined for each of the irradiated photochromic compounds of Examples 1-13 and Comparative Examples 1-2 are presented in Table 1: […]

Data set [2] can be described thus: Determination of maximum absorption wavelength (λmax) after UV irradiation in solution. As to conditions: for λmax: chloroform, irradiated with ultraviolet light with a maximum wavelength of 350 nanometers. Type of data set: physicochemical. As for the experimental part: as §1, §2
Test in data set [3]: as above
The note with it: cyclohexane. The data set is classed as physicochemical. Also on record: key: *: Fades too fast to obtain readings.

The conditions of data set [4]: U.S. Pat. No. 3,567,605 to Becker; cited from earlier work.
The nature of data set [5]: Color of the compound or blend when activated by ultraviolet light. Type of data set: physicochemical.
The mark [6] stands for this setting: absorbance of activated form to decrease to 1/2 of maximum.

The structures appear in SMILES notation.

As to `COc1ccc2c3c(ccc2c1)OC(c1ccccc1)(c1ccccc1)C=C3` [Comparative Example 1, 3,3-diphenyl-8-methoxy-3H-naphtho[2,1-b]pyran, reference compound], the “T1/2 (fade time)” value in data set [1] (setting [6]) worked out at 10 s. For the same compound, the λmax in data set [2] is given as 472 Nanometers; in data set [3], 451 Nanometers.
For `C1=CC(c2ccccc2)(c2ccccc2)Oc2ccc3ccccc3c21` [Comparative Example 2, 3,3-diphenyl-naphtho-3H[2,1-b]pyran, reference compound], the “T1/2 (fade time)” value in data set [1] (setting [6]) was determined as 13 s. The λmax in data set [2] is 435 Nanometers; in data set [3], 415 Nanometers. Besides, the photochromism entry in data set [4] is given as “photochromic at room temperature”.
For the compound `COc1ccc2c3c(ccc2c1)OC1(C=C3)c2ccccc2-c2ccccc21` [Example 1, 8-methoxyspiro(3H-naphtho [2,1-b]pyran-3,9'-fluorene)], in data set [5], the “color when activated by ultraviolet light” value was “deep shade of orange”. Besides, the “color of blend with blue-turning photochromic compounds when activated by ultraviolet radiation” value in data set [5] (blended with blue-turning photochromic compounds, such as substituted spiroindolino naphthoxazine) is reported as “desirable, intense shade of gray”. Besides, the “T1/2 (fade time)” value in data set [1] (setting [6]) is 20 s. The λmax is 492 Nanometers in data set [2] and 478 Nanometers in data set [3]. In addition, in data set [2] (dissolved in chloroform, irradiated with ultraviolet light), the “activated maximum wavelength of absorption” value is recorded as “about 492 nanometers”. The “maximum wavelength of activation, compared with Comparative Example 1” value in data set [2] (vs 3,3-diphenyl-8-methoxy-3H-naphtho[2,1-b]pyran) is listed as “longer maximum wavelength of activation”.
Regarding `COc1ccc2c3c(ccc2c1)OC1(C=C3)CCCc2ccccc21` (stereo not drawn) [Example 2, 8-methoxyspiro(3H-naphtho[2,1-b]pyran-3,1'-tetralone)], the “T1/2 (fade time)” value in data set [1] (setting [6]) stood at 15 s. For the same compound, the results for the λmax in data set [2] and in data set [3] were 474 Nanometers and 465 Nanometers, respectively.
On to `COc1ccc2c3c(ccc2c1)OC1(C=C3)CCCc2cc(OC)c(OC)cc21` (stereo not drawn) [Example 3, 6',7'-dimethoxy-8-methoxyspiro(3H-naphtho[2,1-b]pyran-3,1'-tetralone)], for which the “T1/2 (fade time)” value in data set [1] (symbol, no reading) is recorded as “*”. In addition, the λmax was 445 Nanometers in data set [2] and “*” in data set [3] (symbol, no reading).
As to `COc1ccc2c3c(ccc2c1)OC1(C=C3)c2ccccc2CC(c2ccccc2)C1c1ccccc1` (stereo not drawn) [Example 5], the “T1/2 (fade time)” value in data set [1] (setting [6]) was 13 s. The λmax in data set [2] was determined as 476 Nanometers.
With `COc1ccc2c3c(ccc2c1)OC1(C=C3)c2ccccc2CCC1C` (stereo not drawn) [Example 6, 2'-methyl-8-methoxyspiro(3H-naphtho[2,1-b]pyran-3,1'-tetralone)], the “T1/2 (fade time)” value in data set [1] (setting [6]) was 1.2 s. In addition, the λmax in data set [2] came to 468 Nanometers.
Consider `COc1ccc2c3c(ccc2c1)OC1(C=C3)c2ccccc2CC1C` (stereo not drawn) [Example 7, 2'-methyl-8-methoxyspiro(3H-naphtho[2,1-b]pyran-3,1'-indan)], for which the “T1/2 (fade time)” value in data set [1] (setting [6]) was found to be 396 s. For the same compound, the λmax in data set [2] was 478 Nanometers.
In the case of `COc1ccc2c3c(ccc2c1)OC1(C=C3)C(c2ccccc2)=C(c2ccccc2)c2ccccc21` (stereo not drawn) [Example 8, 2',3'-diphenyl-8-methoxyspiro(3H-naphtho[2,1-b]pyran-3,1'-indene)], the “T1/2 (fade time)” value in data set [1] (setting [6]) amounted to 64 s. Besides, the λmax in data set [2] is 512 Nanometers.
Take `C1=CC2(Oc3ccc4ccccc4c31)c1ccccc1-c1ccccc12` [Example 9, spiro(3H-naphtho[2,1-b]pyran-3,9'-fluorene)]: the “T1/2 (fade time)” value in data set [1] (setting [6]) was found to be 10 s. Also, the values for the λmax in data set [2] and in data set [3] were 445 Nanometers and 438 Nanometers, respectively. Besides, the “maximum wavelengths of activation, compared with Comparative Example 2” value in data set [2] (vs 3,3-diphenyl-naphtho-3H[2,1-b]pyran) is reported as “longer maximum wavelengths of activation”.
In the case of `CC1CCc2ccccc2C12C=Cc1c(ccc3ccccc13)O2` (stereo not drawn) [Example 11, 2'-methylspiro(3H-naphtho[2,1-b]pyran-3,1'-tetralone)], in data set [1] (symbol, no reading), the “T1/2 (fade time)” value is given as “*”. The same compound yielded a λmax in data set [2] of 444 Nanometers.
Consider `C1=CC2(Oc3ccc4ccccc4c31)C(c1ccccc1)=C(c1ccccc1)c1ccccc12` (stereo not drawn) [Example 13], for which, in data set [1] (setting [6]), the “T1/2 (fade time)” value came out at 35 s. In data set [2], this compound yielded a λmax of 454 Nanometers.

Values taken from US5705102A, “Photochromic spironaphthopyran compounds” (Vision-Ease Lens, Inc., priority 1995, dated 1998).
